This note sets out measurements from patent US9199946B2, “Pyrimidinone carboxamide inhibitors of endothelial lipase” (BRISTOL-MYERS SQUIBB COMPANY, priority 2012, dated 2015).

Bounds are passed on as bounds.

In one assay the target is T1, Endothelial lipase (EL) (Homo sapiens, UniProt Q9Y5X9).
T1 construct: HT-1080 cells, which were transformed by RAGE technology (Athersys) to overexpress endogenous EL; endogenous in cells; conditioned medium used as the enzyme source
T1 sequence (Q9Y5X9 21-500): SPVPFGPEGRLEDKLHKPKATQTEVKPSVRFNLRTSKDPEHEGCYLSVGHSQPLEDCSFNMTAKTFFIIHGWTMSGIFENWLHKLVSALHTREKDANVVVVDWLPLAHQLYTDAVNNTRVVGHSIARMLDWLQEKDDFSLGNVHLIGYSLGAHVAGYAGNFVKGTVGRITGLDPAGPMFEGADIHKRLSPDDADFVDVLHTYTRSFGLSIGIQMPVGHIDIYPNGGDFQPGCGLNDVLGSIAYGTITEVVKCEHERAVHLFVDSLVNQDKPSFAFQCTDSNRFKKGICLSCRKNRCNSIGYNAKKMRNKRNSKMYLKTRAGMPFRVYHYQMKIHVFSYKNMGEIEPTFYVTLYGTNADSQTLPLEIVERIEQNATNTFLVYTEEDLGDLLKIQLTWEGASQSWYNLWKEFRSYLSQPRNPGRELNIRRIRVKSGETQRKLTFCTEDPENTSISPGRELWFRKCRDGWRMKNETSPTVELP
The assay can be described thus: Endothelial lipase (EL) enzymatic assay with fluorescent substrate A10070 in DMPG vesicles. The assay is classed as biochemical. To be noted: conditioned media from HT-1080 cells overexpressing endogenous EL; 20 min preincubation at 37° C.; read-out: EL IC50. An outline of the steps:
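The enzyme source was conditioned medium from HT-1080 cells engineered to overexpress endogenous EL. It was preincubated with compound for 20 min at 37 °C in 50 mM HEPES pH 8.0, 50 mM NaCl, 1 mM CaCl2. Reactions started with DMPG vesicles carrying FRET substrate A10070 (mole fraction 0.05). The rate was taken from the linear slope of fluorescence (ex 488/em 530 nm) over 10 min.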
Take `O=C(N[C@H]1CCc2ccc(OCc3ccccc3)cc21)c1[nH]c(=O)[nH]c(=O)c1O` [Example 259, (S)-N-(6-(benzyloxy)-2,3-dihydro-1H-inden-1-yl)-5-hydroxy-2,6-dioxo-1,2,3,6-tetrahydropyrimidine-4-carboxamide]: the IC50 was found to be 0.01 µM.

The assay is the same for the next values; noted with them: range observed in the EL assay; read-out: EL IC50 values.
In the case of `O=C(N[C@@H]1CC[C@@H](C(=O)NCc2nc3ccccc3s2)C1)c1[nH]c(=O)[nH]c(=O)c1O` [Example 296, N-((1R,3R)-3-(benzo[d]thiazol-2-ylmethylcarbamoyl)cyclopentyl)-5-hydroxy-2,6-dioxo-1,2,3,6-tetrahydropyrimidine-4-carboxamide], the IC50 was at most 10 µM.
Same read-out and setting: the result for `Nc1c(C(=O)N[C@H]2CC[C@@H](NC(=O)OCc3ccccc3)CC2)[nH]c(=O)[nH]c1=O` [Example 119, benzyl cis-4-(5-amino-2,6-dioxo-1,2,3,6-tetrahydropyrimidine-4-carboxamido)cyclohexylcarbamate] reads at most 10 µM; that for `Nc1c(C(=O)N[C@@H]2CCCc3c(-c4ccccc4)cccc32)[nH]c(=O)[nH]c1=O` [Example 112, (R)-5-amino-2,6-dioxo-N-(5-phenyl-1,2,3,4-tetrahydronaphthalen-1-yl)-1,2,3,6-tetrahydropyrimidine-4-carboxamide], at most 10 µM.
On the same count and under the same terms, the result for `Nc1c(C(=O)N[C@@H]2CC[C@@H](C(=O)N[C@H]3CCCc4ccccc43)C2)[nH]c(=O)[nH]c1=O` [Example 146, 5-amino-2,6-dioxo-N-((1R,3R)-3-((S)-1,2,3,4-tetrahydronaphthalen-1-ylcarbamoyl)cyclopentyl)-1,2,3,6-tetrahydropyrimidine-4-carboxamide] reads at most 10 µM; that for `Nc1c(C(=O)N[C@H]2CC[C@@H](c3ccc(-c4ccc(CO)cc4)cc3)C2)[nH]c(=O)[nH]c1=O` [Example 177, 5-amino-N-((1S,3R)-3-(4′-(hydroxymethyl)biphenyl-4-yl)cyclopentyl)-2,6-dioxo-1,2,3,6-tetrahydropyrimidine-4-carboxamide], at most 10 µM; that for `Nc1c(C(=O)N[C@@H]2CCc3cc(C(F)(F)F)ccc32)[nH]c(=O)[nH]c1=O` [Example 27, (R)-5-amino-2,6-dioxo-N-(5-(trifluoromethyl)-2,3-dihydro-1H-inden-1-yl)-1,2,3,6-tetrahydropyrimidine-4-carboxamide], at most 10 µM.
On the same count and under the same terms, the result for `O=C(N[C@H]1CCc2ccc(OCc3ccccc3)cc21)c1[nH]c(=O)[nH]c(=O)c1O` [Example 259, (S)-N-(6-(benzyloxy)-2,3-dihydro-1H-inden-1-yl)-5-hydroxy-2,6-dioxo-1,2,3,6-tetrahydropyrimidine-4-carboxamide] reads at most 10 µM.
With `Nc1c(C(=O)N[C@H]2CC[C@@H](NC(=O)c3cccc(OCc4ccccc4)c3)CC2)[nH]c(=O)[nH]c1=O` [Example 122, 5-amino-N-(cis-4-(3-(benzyloxy)benzamido)cyclohexyl)-2,6-dioxo-1,2,3,6-tetrahydropyrimidine-4-carboxamide], the IC50 was at most 10 µM.
For `CC(C)Cn1c(=O)[nH]c(C(=O)N[C@H]2CC[C@@H](c3ccccc3)CC2)c(O)c1=O` [Example 253, 5-hydroxy-1-isobutyl-2,6-dioxo-N-((1s,4s)-4-phenylcyclohexyl)-1,2,3,6-tetrahydropyrimidine-4-carboxamide], the IC50 is at most 10 µM.
`Nc1c(C(=O)N[C@H]2CC[C@H](c3ccc(Cl)c(Cl)c3)C2)[nH]c(=O)[nH]c1=O` [Example 69, 5-amino-N-((1S,3S)-3-(3,4-dichlorophenyl)cyclopentyl)-2,6-dioxo-1,2,3,6-tetrahydropyrimidine-4-carboxamide]: the IC50 is at most 10 µM.
On the same count and under the same terms, the result for `O=C(N[C@H]1CC[C@@H](c2ccccc2)CC1)c1[nH]c(=O)[nH]c(=O)c1NCc1ccc(C(F)(F)F)cc1` [Example 220, 2,6-dioxo-N-(cis-4-phenylcyclohexyl)-5-(4-(trifluoromethyl)benzylamino)-1,2,3,6-tetrahydropyrimidine-4-carboxamide] reads at most 10 µM.
Still for that read-out and setting: the figure for `Nc1c(C(=O)N[C@@H]2CCCc3cc(OCc4ccccc4)ccc32)[nH]c(=O)[nH]c1=O` [Example 83, (R)-5-amino-N-(6-(benzyloxy)-1,2,3,4-tetrahydronaphthalen-1-yl)-2,6-dioxo-1,2,3,6-tetrahydropyrimidine-4-carboxamide] is at most 10 µM.
Still for that read-out and setting: the result for `Nc1c(C(=O)N[C@@H]2C[C@@H](c3ccccc3)c3ccccc32)[nH]c(=O)[nH]c1=O` [Example 42, 5-amino-2,6-dioxo-N-((1R,3S)-3-phenyl-2,3-dihydro-1H-inden-1-yl)-1,2,3,6-tetrahydropyrimidine-4-carboxamide] reads at most 10 µM; that for `COCCNc1c(C(=O)N[C@H]2CC[C@@H](c3ccccc3)CC2)[nH]c(=O)[nH]c1=O` [Example 214, 5-(2-methoxyethylamino)-2,6-dioxo-N-(cis-4-phenylcyclohexyl)-1,2,3,6-tetrahydropyrimidine-4-carboxamide], at most 10 µM.
As to `Nc1c(C(=O)N[C@H]2CC[C@@H](c3ccccc3)C2)[nH]c(=O)[nH]c1=O` [Example 78, 5-amino-2,6-dioxo-N-((1S,3R)-3-phenylcyclopentyl)-1,2,3,6-tetrahydropyrimidine-4-carboxamide], the IC50 was at most 10 µM.
